Laboratory results published in patent US10711002B2, “Purine compounds and method for the treatment of cancer” (THE ROYAL INSTITUTION FOR THE ADVANCEMENT OF …, priority 2016, dated 2020).

Legend:
Experiment in all cases: High-throughput kinase assay
Assay type in all cases: biochemical
PRKCE (PKC epsilon) = molecular target: T1, PRKCE (PKC epsilon) (Homo sapiens, UniProt Q02156); settings: 50 nM; read-out: Percent inhibition of kinase activity in vitro, PRKCE (PKC epsilon)
T1 sequence (Q02156 1-737): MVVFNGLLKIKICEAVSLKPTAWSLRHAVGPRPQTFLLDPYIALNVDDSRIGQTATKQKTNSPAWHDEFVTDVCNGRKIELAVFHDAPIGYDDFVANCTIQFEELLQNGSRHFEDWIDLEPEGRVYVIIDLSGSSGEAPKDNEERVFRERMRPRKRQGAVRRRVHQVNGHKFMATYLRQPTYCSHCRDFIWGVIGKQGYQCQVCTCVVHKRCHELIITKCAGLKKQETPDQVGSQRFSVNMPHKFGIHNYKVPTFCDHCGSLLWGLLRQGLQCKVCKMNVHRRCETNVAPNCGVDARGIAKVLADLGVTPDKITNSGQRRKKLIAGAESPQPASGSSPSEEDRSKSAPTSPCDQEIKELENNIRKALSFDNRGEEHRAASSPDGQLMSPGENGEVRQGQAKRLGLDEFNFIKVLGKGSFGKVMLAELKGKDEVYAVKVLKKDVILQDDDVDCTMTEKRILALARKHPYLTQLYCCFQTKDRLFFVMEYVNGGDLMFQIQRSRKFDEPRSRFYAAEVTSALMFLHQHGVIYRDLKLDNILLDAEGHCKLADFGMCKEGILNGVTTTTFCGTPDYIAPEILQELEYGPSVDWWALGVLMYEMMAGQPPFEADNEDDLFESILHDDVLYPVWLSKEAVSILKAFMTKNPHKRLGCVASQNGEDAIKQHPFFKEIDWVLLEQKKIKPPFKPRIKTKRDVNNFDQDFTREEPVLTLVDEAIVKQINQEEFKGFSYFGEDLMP
Protocol: (§1) Screening of Compounds 1-4 against several kinases identified two prominent targets of these compounds as the Aurora A kinase and calcium dependent protein kinase C isoforms α, βI, βII and […] (Tables 1 to 3). IC50s for these two targets were obtained by plotting inhibition levels at 500 nM, 100 nM, 50 nM and 10 nM (FIG. 3). These kinases are directly involved in pathways controlling cell differentiation programs, metastasis signaling, as well as EMT and CSC programming and their overexpression was reported to predict decreased metastasis-free survival.

BRAF-ZLYTE-100 = BRAF-ZLYTE-100 (Homo sapiens, UniProt P15056); settings: 100 nM; read-out: Percent inhibition of kinase activity in vitro, BRAF-ZLYTE-100
Protocol: as §1

IGF1R = IGF1R (Homo sapiens, UniProt P08069); settings: read-out: Percent inhibition of kinase activity in vitro, IGF1R; for inhibition at 0.1 µM: 100 nM; for inhibition at 0.5 µM: 500 nM
Protocol: as §1

PRKCB1 (PKC beta I) = PRKCB1 (PKC beta I) (Homo sapiens, UniProt P05771); settings: 50 nM; read-out: Percent inhibition of kinase activity in vitro, PRKCB1 (PKC beta I)
Protocol: as §1

PRKCI (PKC iota) = molecular target: T2, PRKCI (PKC iota) (Homo sapiens, UniProt P41743); settings: 50 nM; read-out: Percent inhibition of kinase activity in vitro, PRKCI (PKC iota)
T2 sequence (P41743 1-596): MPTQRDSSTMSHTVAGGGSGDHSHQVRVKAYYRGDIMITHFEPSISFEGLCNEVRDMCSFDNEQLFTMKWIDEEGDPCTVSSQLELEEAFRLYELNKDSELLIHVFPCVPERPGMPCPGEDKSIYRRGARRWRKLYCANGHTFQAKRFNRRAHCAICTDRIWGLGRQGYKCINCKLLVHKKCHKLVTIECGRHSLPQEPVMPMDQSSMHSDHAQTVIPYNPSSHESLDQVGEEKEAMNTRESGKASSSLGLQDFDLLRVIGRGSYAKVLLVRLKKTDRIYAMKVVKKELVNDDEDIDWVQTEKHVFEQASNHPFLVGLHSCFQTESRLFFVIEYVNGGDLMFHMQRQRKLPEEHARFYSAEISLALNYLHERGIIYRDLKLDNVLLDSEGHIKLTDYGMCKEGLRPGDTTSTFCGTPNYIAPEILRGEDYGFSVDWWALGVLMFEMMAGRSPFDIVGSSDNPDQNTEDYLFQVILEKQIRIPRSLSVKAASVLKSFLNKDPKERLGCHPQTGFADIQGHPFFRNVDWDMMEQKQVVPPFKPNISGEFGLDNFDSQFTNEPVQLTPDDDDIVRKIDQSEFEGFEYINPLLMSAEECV
Protocol: as §1

YES1 = YES1 (Homo sapiens, UniProt P07947); settings: read-out: Percent inhibition of kinase activity in vitro, YES1; for inhibition at 0.1 µM: 100 nM; for inhibition at 0.5 µM: 500 nM
Protocol: as §1

PRKD1 (PKC mu) = molecular target: T3, PRKD1 (PKC mu) (Homo sapiens, UniProt Q15139); settings: 50 nM; read-out: Percent inhibition of kinase activity in vitro, PRKD1 (PKC mu)
T3 sequence (Q15139 1-912): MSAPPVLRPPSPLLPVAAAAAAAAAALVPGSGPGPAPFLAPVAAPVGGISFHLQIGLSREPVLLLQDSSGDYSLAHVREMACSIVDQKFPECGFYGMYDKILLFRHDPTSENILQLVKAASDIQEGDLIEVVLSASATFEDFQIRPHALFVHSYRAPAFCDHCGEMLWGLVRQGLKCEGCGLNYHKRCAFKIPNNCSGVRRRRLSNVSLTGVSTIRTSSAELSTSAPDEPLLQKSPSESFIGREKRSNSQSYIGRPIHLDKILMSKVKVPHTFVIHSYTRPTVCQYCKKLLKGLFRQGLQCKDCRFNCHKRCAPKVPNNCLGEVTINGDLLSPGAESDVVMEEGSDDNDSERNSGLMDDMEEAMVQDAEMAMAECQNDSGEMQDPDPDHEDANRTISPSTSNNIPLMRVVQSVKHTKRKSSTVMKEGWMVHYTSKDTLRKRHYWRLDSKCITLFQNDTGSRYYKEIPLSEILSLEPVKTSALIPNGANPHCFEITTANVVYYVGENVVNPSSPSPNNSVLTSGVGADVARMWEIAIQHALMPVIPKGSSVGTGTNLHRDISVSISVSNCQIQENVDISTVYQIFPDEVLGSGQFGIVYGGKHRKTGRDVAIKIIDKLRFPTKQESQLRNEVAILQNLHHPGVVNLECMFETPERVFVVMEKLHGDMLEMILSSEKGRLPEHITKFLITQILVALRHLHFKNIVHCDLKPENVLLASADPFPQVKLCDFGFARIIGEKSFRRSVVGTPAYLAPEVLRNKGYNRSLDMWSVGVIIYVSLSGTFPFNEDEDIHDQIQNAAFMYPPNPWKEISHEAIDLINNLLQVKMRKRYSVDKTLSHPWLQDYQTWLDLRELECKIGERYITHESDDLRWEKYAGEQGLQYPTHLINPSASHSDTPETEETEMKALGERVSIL
Protocol: as §1

Sequence of PRKCB1 (PKC beta I) (P05771 whole entry): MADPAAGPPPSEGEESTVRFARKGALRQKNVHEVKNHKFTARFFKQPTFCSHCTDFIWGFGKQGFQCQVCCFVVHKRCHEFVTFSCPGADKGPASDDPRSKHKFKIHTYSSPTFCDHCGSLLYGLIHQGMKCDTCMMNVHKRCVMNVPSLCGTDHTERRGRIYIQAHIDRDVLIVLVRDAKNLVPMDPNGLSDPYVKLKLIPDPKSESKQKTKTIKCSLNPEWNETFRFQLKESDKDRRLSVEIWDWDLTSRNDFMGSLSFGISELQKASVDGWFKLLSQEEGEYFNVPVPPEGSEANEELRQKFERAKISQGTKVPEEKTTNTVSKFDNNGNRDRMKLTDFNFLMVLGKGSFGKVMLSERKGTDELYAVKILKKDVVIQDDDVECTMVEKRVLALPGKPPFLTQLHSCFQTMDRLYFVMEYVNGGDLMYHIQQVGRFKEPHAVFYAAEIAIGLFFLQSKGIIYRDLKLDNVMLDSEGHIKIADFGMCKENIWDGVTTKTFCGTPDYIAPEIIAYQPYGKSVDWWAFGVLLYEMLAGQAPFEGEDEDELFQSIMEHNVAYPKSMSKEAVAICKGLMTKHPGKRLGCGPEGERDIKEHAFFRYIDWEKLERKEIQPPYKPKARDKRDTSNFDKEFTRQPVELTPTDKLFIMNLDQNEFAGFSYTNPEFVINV
Sequence of BRAF-ZLYTE-100 (P15056 whole entry): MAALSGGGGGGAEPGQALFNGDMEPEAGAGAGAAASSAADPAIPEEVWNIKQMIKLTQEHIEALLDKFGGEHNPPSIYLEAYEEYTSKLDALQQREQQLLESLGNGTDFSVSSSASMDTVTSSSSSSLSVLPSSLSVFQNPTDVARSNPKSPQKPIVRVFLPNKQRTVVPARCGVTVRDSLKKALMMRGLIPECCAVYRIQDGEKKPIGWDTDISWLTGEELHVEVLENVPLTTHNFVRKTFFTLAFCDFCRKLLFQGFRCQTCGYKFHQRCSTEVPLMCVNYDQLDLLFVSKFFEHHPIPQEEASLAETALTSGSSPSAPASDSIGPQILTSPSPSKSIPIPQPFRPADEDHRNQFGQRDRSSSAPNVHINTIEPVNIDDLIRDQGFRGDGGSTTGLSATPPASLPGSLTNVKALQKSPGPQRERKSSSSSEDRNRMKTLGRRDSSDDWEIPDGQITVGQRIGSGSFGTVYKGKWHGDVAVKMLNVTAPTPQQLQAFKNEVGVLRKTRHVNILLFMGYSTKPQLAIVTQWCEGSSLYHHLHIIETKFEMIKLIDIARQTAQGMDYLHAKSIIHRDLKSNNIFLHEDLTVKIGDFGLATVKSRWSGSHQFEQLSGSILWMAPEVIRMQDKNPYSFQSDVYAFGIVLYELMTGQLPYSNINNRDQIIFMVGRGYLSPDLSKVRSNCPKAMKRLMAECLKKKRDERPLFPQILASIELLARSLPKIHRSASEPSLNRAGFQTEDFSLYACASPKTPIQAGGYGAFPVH
Sequence of YES1 (P07947 whole entry): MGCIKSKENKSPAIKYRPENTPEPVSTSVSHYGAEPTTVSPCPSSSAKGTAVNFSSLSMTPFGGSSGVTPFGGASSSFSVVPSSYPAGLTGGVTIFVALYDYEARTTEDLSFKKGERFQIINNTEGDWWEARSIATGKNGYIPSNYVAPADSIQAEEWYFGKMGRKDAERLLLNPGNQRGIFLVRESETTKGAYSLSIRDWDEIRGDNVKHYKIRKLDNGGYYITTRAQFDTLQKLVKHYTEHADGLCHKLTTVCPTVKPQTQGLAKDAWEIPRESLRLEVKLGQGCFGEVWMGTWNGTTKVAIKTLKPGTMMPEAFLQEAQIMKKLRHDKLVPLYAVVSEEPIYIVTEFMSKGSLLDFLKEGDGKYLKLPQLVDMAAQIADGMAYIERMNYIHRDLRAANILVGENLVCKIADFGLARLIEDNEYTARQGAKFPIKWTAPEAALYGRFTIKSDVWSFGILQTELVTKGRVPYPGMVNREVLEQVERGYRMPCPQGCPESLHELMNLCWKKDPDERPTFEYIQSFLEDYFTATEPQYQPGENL
Sequence of IGF1R (P08069 31-1367): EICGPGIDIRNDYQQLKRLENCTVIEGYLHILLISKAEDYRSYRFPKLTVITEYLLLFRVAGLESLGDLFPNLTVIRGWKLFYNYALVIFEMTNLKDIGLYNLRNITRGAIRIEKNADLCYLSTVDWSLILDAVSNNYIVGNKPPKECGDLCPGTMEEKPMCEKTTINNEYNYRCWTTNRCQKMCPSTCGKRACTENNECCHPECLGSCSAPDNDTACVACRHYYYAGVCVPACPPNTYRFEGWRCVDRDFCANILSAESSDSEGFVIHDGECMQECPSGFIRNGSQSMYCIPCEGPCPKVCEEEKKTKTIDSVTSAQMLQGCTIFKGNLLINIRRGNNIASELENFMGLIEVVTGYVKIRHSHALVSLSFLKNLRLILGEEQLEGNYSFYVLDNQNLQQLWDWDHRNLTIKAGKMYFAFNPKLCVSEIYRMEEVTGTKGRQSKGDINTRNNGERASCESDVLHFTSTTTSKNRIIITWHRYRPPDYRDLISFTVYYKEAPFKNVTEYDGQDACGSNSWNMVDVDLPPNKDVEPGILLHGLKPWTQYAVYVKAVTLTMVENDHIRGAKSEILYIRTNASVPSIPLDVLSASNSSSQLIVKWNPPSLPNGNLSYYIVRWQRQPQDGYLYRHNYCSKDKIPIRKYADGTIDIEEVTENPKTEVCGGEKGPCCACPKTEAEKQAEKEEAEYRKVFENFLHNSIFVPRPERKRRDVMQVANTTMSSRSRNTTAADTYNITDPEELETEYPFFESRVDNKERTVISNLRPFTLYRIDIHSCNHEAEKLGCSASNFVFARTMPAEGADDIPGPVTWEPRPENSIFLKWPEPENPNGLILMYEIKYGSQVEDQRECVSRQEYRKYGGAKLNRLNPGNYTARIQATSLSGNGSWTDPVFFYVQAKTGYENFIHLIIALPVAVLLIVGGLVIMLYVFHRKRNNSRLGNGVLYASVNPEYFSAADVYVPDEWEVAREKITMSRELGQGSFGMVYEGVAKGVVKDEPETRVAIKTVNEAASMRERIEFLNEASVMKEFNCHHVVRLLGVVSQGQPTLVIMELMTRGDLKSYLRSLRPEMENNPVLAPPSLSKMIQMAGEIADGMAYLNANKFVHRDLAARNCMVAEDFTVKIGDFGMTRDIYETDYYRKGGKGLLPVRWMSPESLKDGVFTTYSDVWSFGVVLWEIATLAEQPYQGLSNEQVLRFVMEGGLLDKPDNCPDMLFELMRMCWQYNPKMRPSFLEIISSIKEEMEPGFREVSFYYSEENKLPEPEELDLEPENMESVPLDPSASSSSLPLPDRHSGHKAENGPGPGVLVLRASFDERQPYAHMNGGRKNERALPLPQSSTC

| Structure (SMILES) | inhibition at 0.05 µM (PRKCE (PKC epsilon)) | inhibition at 0.1 µM (BRAF-ZLYTE-100) | inhibition at 0.1 µM (IGF1R) | inhibition at 0.5 µM (IGF1R) | inhibition at 0.05 µM (PRKCB1 (PKC beta I)) | inhibition at 0.05 µM (PRKCI (PKC iota)) | inhibition at 0.1 µM (YES1) | inhibition at 0.5 µM (YES1) | inhibition at 0.05 µM (PRKD1 (PKC mu)) |
| --- | --- | --- | --- | --- | --- | --- | --- | --- | --- |
| O=c1c2ccccc2[se]n1-c1nc(NC2CCCCC2)c2nc[nH]c2n1 [Compound 1] | 6% | 1% | 0% | 12% | 59% | 4% | 22% | 47% | 5% |
| O=c1c2ccccc2[se]n1-c1nc(NC2CC[Se]C2)c2nc[nH]c2n1 (stereo not shown) [Compound 2] | – | 0% | – | 11% | – | – | 22% | 35% | – |
| C[C@@H]1C(Nc2nc(-n3[se]c4ccccc4c3=O)nc3[nH]cnc23)C[C@H]2C[C@@H]1C2(C)C (stereo partly shown) [Compound 3] | – | 0% | – | 13% | – | – | 17% | 53% | – |
| O=c1c2ccccc2[se]n1-c1nc(N[C@H]2CC[Se]C2)c2nc[nH]c2n1 [Compound 4] | 5% | 0% | 4% | – | 95% | 7% | 24% | – | 7% |
| O=C1c2ccccc2CN1c1nc(NC2CCCCC2)c2nc[nH]c2n1 [SLLN-6C, reference compound] | 4% | 1% | 0% | – | 5% | 7% | 5% | – | 6% |
